Laboratory results reported in patent publication US20110319411A1, “ISOINDOLINONE AND RELATED ANALOGS AS SIRTUIN MODULATORS” (Sirtis Pharmaceuticals, Inc., priority 2008, published 2011).

Molecular target: T1, SIRT1 (Homo sapiens, UniProt Q96EB6)
T1 construct: made in house; host or cells: E. coli BL21(DE3)
T1 sequence (Q96EB6 1-747): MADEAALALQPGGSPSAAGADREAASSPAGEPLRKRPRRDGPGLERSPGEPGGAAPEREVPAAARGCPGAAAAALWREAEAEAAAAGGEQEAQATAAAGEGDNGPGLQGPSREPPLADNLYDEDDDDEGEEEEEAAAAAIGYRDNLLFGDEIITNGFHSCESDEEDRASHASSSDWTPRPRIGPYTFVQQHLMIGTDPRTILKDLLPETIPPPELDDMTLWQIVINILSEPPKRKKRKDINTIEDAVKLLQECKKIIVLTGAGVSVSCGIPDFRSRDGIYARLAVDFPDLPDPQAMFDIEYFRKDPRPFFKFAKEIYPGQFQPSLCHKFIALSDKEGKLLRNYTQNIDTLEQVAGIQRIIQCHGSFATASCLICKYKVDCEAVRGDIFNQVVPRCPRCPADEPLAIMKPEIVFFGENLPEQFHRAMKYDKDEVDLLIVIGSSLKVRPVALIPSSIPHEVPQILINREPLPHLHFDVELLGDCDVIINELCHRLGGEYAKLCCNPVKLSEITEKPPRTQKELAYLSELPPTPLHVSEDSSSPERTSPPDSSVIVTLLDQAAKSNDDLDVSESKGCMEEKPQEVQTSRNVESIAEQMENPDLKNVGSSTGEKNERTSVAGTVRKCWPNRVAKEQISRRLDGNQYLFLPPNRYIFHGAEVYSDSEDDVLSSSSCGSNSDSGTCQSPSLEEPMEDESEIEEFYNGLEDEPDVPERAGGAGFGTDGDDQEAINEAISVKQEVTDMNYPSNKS
Test: mass spectrometry based assay to identify modulators of SIRT1 activity
Type: biochemical
Conditions: 10 nM SIRT1, 0.5 μM peptide substrate, 120 μM βNAD+, 25 minutes at 25° C.; for Emax: 25 min, read-out: % FOLD ACT. (percent maximum fold activation)
From the text: A mass spectrometry based assay was used to identify modulators of SIRT1 activity. The mass spectrometry based assay utilizes a peptide having 20 amino acid residues as follows: Ac-EE-K(biotin)-GQSTSSHSK(Ac)NleSTEG-K(5TMR)-EE-NH2 (SEQ ID NO: 1) wherein K(Ac) is an acetylated lysine residue and Nle is a norleucine. The peptide is labeled with the fluorophore 5TMR (excitation 540 nm/emission 580 nm) at the C-terminus. The sequence of the peptide substrate is based on p53 with several modifications. In addition, the methionine residue naturally present in the sequence was replaced with the norleucine because the methionine may be susceptible to oxidation during synthesis and purification.
The mass spectrometry assay is conducted as follows: 0.5 μM peptide substrate and 120 μM βNAD^+ is incubated with 10 nM SIRT1 for 25 minutes at 25° C. in a reaction buffer (50 mM Tris-acetate pH 8, 137 mM NaCl, 2.7 mM KCl, 1 mM MgCl2, 5 mM DTT, 0.05% BSA). Test compounds may be added to the reaction as described above. The SirT1 gene is cloned into a T7-promoter containing vector and transformed into BL21(DE3). After the 25 minute incubation with SIRT1, 10 μL of 10% formic acid is added to stop the reaction. Reactions are sealed and frozen for later mass spec analysis. Determination of the mass of the substrate peptide allows for precise determination of the degree of acetylation (i.e. starting material) as compared to deacetylated peptide (product).
A control for inhibition of sirtuin activity is conducted by adding 1 μL of 500 mM nicotinamide as a negative control at the start of the reaction (e.g., permits determination of maximum sirtuin inhibition). A control for activation of sirtuin activity is conducted using 10 nM of sirtuin protein, with 1 μL of DMSO in place of compound, to determine the amount of deacetylation of the substrate at a given timepoint within the linear range of the assay. This timepoint is the same as that used for test compounds and, within the linear range, the endpoint represents a change in velocity.
For the above assay, SIRT1 protein was expressed and purified as follows. The SirT1 gene was cloned into a T7-promoter containing vector and transformed into BL21(DE3). The protein was expressed by induction with 1 mM IPTG as an N-terminal His-tag fusion protein at 18° C. overnight and harvested at 30,000×g. Cells were lysed with lysozyme in lysis buffer (50 mM Tris-HCl, 2 mM Tris[2-carboxyethyl]phosphine (TCEP), 10 μM ZnCl2, 200 mM NaCl) and further treated with sonication for 10 min for complete lysis. The protein was purified over a Ni-NTA column (Amersham) and fractions containing pure protein were pooled, concentrated and run over a sizing column (Sephadex S200 26/60 global). The peak containing soluble protein was collected and run on an Ion-exchange column (MonoQ). Gradient elution (200 mM-500 mM NaCl) yielded pure protein. This protein was concentrated and dialyzed against dialysis buffer (20 mM Tris-HCl, 2 mM TCEP) overnight. The protein was aliquoted and frozen at −80° C. until further use.
Sirtuin modulating compounds that activated SIRT1 were identified using the assay described above and are shown below in Table 1. The EC1.5 values represent the concentration of test compounds that result in 150% activation of SIRT1. The EC1.5 values for the activating compounds are represented by A (EC1.5<10 μM), B (EC1-5 10-25 μM), C (EC1.5>25 μM). The percent maximum fold activation is represented by A (Fold activation >200%) or B (Fold Activation <200%).

EC1.5 (concentration of test compound that results in 150% activation of SIRT1)	Emax [%]	SMILES
C (EC1.5>25 μM)	< 200	O=C(Nc1cccc2c1C(=O)N(c1cccc(C(F)(F)F)c1)C2)c1cccc(N2CCOCC2)n1 [Compound 135]
C (EC1.5>25 μM)	< 200	O=C(Nc1cccc2c1C(=O)N(c1cccc(C(F)(F)F)c1)C2)c1cccc(N2CCCC2)n1 [Compound 136]
C (EC1.5>25 μM)	< 200	O=C(Nc1cccc2c1C(=O)N(c1cccc(C(F)(F)F)c1)C2)c1cncc(N2CCOCC2)n1 [Compound 137]

More lines, now with the values behind:

SMILES	EC1.5 (concentration of test compound that results in 150% activation of SIRT1)	Emax [%]
O=C(Nc1cccc2c1C(=O)N(c1cccc(OC(F)(F)F)c1)C2)c1cccc(OCC(O)CO)n1 (stereo not shown) [Compound 131]	C (EC1.5>25 μM)	< 200
O=C(Nc1cccc2c1C(=O)N(c1cccc(OC(F)(F)F)c1)C2)c1cccc(CN2CCOCC2)n1 [Compound 132]	A (EC1.5<10 μM)	< 200
O=C(Nc1cccc2c1C(=O)N(c1cccc(C(F)(F)F)c1)C2)c1nccs1 [Compound 133]	C (EC1.5>25 μM)	< 200
O=C(Nc1cccc2c1C(=O)N(c1cccc(C(F)(F)F)c1)C2)c1cccnn1 [Compound 134]	C (EC1.5>25 μM)	< 200
O=C(Nc1cccc2c1C(=O)N(c1cccc(C(F)(F)F)c1)C2)c1cccc(C2CCNC2)c1 (stereo not shown) [Compound 138]	A (EC1.5<10 μM)	> 200
